{
  "source": "patent US20260207720A1",
  "about": "“COMPOSITIONS AND METHODS FOR TREATING FUNGAL INFECTIONS” (MUCPharm Pty Ltd, priority 2022, published 2026)",
  "key": {"[1]": {"tested_on": "Mucormycete group (Rhizopus microspores, Fusarium solani cx, Rhizopus arrhizus and Candida krusei QC)", "test": "Susceptibility assay of bromelain and acetylcysteine alone or together (Example 1)", "assay_type": "cell-based", "conditions": "in isolation, R. microsporus, read-out: MIC required to inhibit Mucormycete growth", "experimental": "Unless otherwise described, fungal cultures were grown on potato dextrose agar plates at 35° C. until mature (appearance of conidia) and used to prepare suspensions in sterile water. Suspensions were diluted in RPMI 1:60. These suspensions were then added in equal volume to solutions containing the candidate species described above and incubated at 35° C. for 24 hr. Plates were then analysed for fungal growth inhibition and MIC values determined. […] Initial tests were conducted on one strain of Rhizopus microsporus, one strain of Rhizopus arrhizus and one strain of Candida krusei QC, all sourced clinically."}, "[2]": {"tested_on": "Aspergillus fumigatus (ATCC strain 13697)", "test": "Broth dilution susceptibility test, MIC and percent growth (Example 7)", "assay_type": "cell-based", "experimental": "A. Preparation of inoculum: • 1. Candida glabrata was grown on Sabouraud dextrose agar (SDA) at 37° C. for 24-48 hrs. • 2. Following this, 5 colonies of 1 mm diameter were picked and suspended in 5 mL sterile saline (0.9% saline) and vortexed for 15 seconds. • 3. Working suspension is prepared as a 1:100 dilution from stock suspension with RPMI 1640 culture medium. • 4. The cell density is adjusted with a spectrophotometer to the transmittance produced by a 0.5 McFarland standard (0.08 to 0.1) OD at 625 nm wavelength.\n• 1. For Bromelain, a stock concentration of 1 mg/ml Bromelain solution was prepared in RPMI media and diluted to test concentrations of 62.4, 31.2, 15.6 and 7.8 μg/ml in RPMI 1640 media. • 2. Acetylcysteine stock concentration is 200 mg/ml, diluted to 40, 20, 10, and 5 mg/ml concentrations in RPMI 1640 medium. • 3. These concentrations are prepared at 2× of the required concentrations in the final assay plate.\nAntifungal stock concentrations are as follows— • 1. Amphotericin B, Stock concentration: 250 μg/ml in water. • 2. Posaconazole, Original concentration: 300 mg in 16.7 ml, Working stock concentration: 1 mg/ml in DMSO. • 3. Fluconazole, Original concentration: 100 mg in 50 ml, Working stock concentration: 1 mg/ml in DMSO. • 4. The final concentration was prepared in RPMI 1640 media and concentrations range was 0.01-0.5 μg/mL for amphotericin B, 0.01-2 μg/mL for posaconazole and 0.01-64 μg/mL for fluconazole. • 5. These concentrations were prepared at 2× of the required concentrations in the final assay plate.\n• 1. Wells of the 96-well plates were inoculated with appropriate concentrations and volumes of drugs. • 2. Sterility control and growth controls are included in each plate. • 3. Each 96-well plate (except the control wells) contains 100 μL of double strength (twice the final antifungal drug) concentrations. • 4. 100 μL of the fungal suspension is added to 96-well plates (except the sterility control wells). • 5. The growth control wells contained 100 μL of sterile drug-free medium and 100 μL of inoculum suspension, while the sterility control wells contained 200 μl of sterile drug-free medium. • 6. Plates are then incubated at 37° C. and read at 625,430, and 530 nm wavelengths. • 7. Data from 24 hours and absorbance at 625 nm were used for analysis.\nThese experiments were conducted to determine the efficacy of BromAc alone and in combination with existing antifungal drugs against Aspergillus fumigatus (ATCC strain 13697).\nThe method used in these experiments is essentially the same as that described above in Example 5. In these experiments, however, echinocandins such as […] Caspofungin are used in place of the azole antifungals described in earlier examples."}},
  "data": [
    {"smiles": "CC(=O)N[C@@H](CS)C(=O)O", "note": "[Acetylcysteine, N-acetylcysteine]", "values": [
      {"measurement": "MIC", "setting": "[1]", "result": 10, "unit": "µg/mL"}
    ]},
    {"smiles": "CC[C@H](C)C[C@H](C)CCCCCCCCC(=O)N[C@H]1C[C@@H](O)[C@@H](NCCN)NC(=O)[C@@H]2[C@@H](O)CCN2C(=O)[C@H]([C@H](O)CCN)NC(=O)[C@H]([C@H](O)[C@@H](O)c2ccc(O)cc2)NC(=O)[C@@H]2C[C@@H](O)CN2C(=O)[C@H]([C@@H](C)O)NC1=O", "note": "[Caspofungin]", "values": [
      {"measurement": "MIC", "setting": "[2]; FIGS. 13a, 14a", "result": "> 1", "unit": "µg/mL"},
      {"measurement": "effect at lower concentrations (in words)", "setting": "[2]; Voriconazole 1 μg/ml and 0.5 μg/ml, Caspofungin 0.25 μg/ml and 0.125 μg/ml", "result": "almost no inhibitory effect"}
    ]}
  ]
}
